Data reported in PMC12040169 (PLOS Biology, 2025).

test: in vitro; conditions: human, hela cells, % viability

Structure (SMILES)	viability at 28.5 h, 10 µM
CC1CCCC(C)N1C(=O)Cn1c(=O)n(C)c2ncccc21 (stereo not shown) [CBK282389]	107%
CCN(Cc1ccco1)C(=O)Cn1c(=O)n(C)c2ncccc21 [CBK282390]	99.3%
COc1cccc(Cn2c(=O)n(C)c3ncccc32)c1 [CBK282391]	81.1%
Cc1cc2c(o1)c1cnn(CC(=O)N(C(C)C)C(C)C)c(=O)c1n2C [CBK282392]	83.2%
COc1ccccc1CCNC(=O)c1ncoc1-c1cccs1 [CBK282394]	76.4%
O=C(c1ncoc1-c1ccc(F)cc1)N1CCN2CCCCC2C1 (stereo not shown) [CBK282400]	96.2%
CC(NC(=O)c1ncoc1-c1ccccc1F)c1ccccn1 (stereo not shown) [CBK282402]	91.4%
O=C(NCc1cccnc1)c1ncoc1-c1cccc(Cl)c1 [CBK282403]	85.4%
CC(=O)N1CCC(Cn2nc(-c3ccccc3)ccc2=O)CC1 [CBK282405]	109%
CC(=O)N1CCC(Cn2nc(-c3ccc(F)cc3)ccc2=O)CC1 [CBK282406]	101%
Cc1ccccc1-c1ocnc1C(=O)NCc1ccco1 [CBK282408]	84.5%
O=C(c1ccc(F)cc1)[C@H]1CCCN(C(=O)c2cc(C3CC3)n[nH]2)C1 [CBK282410]	99.6%
O=C(c1cccs1)[C@H]1CCCN(C(=O)c2cc(C3CC3)n[nH]2)C1 [CBK282411]	85.3%
Cn1ccc(C(=O)N2CCC[C@H](C(=O)c3cccs3)C2)n1 [CBK282412]	98%
Cc1sc2nc(C)n(C3CCN(C(=O)C(C)C)CC3)c(=O)c2c1C [CBK282414]	88.7%
Cc1nc2c(c(=O)[nH]1)CN(Cc1ccc(Cl)cc1)CC2 [CBK282415]	84.5%
O=C(Nc1ccccc1-n1ccnc1)c1ncoc1-c1ccc(F)cc1 [CBK282417]	94.1%
Cc1sc2nc(C)n(C3CCNCC3)c(=O)c2c1C [CBK282421]	113%
CC(C)C(=O)N1CCC(n2nc(-c3cccs3)oc2=O)CC1 [CBK282422]	103%

Structure (SMILES)	viability at 28.5 h, 10 µM
CC(C)(C)C(=O)N1CCC(n2nc(-c3cccs3)oc2=O)CC1 [CBK282423]	88%
C#CCNC(=O)C1CCCN(c2nc3ccccc3n2CC)C1 (stereo not shown) [CBK282433]	90.5%
CC(NC(=O)c1ncoc1-c1ccc2ccccc2c1)c1cccnc1 (stereo not shown) [CBK282441]	94.2%
CC(C)C(NC(=O)c1cccc(-n2cnnc2)c1)c1cccs1 (stereo not shown) [CBK282442]	111%
Cc1c(-c2ccccc2)n[nH]c1C(=O)NCCCc1ccccn1 [CBK282445]	89%
C=CCC1(CC=C)CCN1C(=O)c1cc(-c2ccccn2)n[nH]1 [CBK282448]	106%
CC(C)NC(=O)Cn1c(-c2cccs2)cc2cccnc21 [CBK282454]	97.3%
CC(C)(C)NC(=O)Cn1c(-c2cccs2)cc2cccnc21 [CBK282455]	97.1%
CCCc1cc(C(=O)NC(c2ccccc2)c2cccnc2)[nH]n1 (stereo not shown) [CBK282462]	93.8%
CCC(=O)N1CCC2(CC1)CNC(=O)c1cc(C)ccc1O2 [CBK282468]	85.2%
Cc1ccc(C2(CN3CCN(Cc4cnc(C)n4C)CC3)CC2)cc1 [CBK282469]	93.5%
CCN1CCCC1CN(Cc1cnn(C)c1)Cc1ccco1 (stereo not shown) [CBK282470]	96.6%
Cc1nn(C)cc1CN(Cc1ccc(F)cc1)CC1CCCO1 (stereo not shown) [CBK282472]	98.5%
Cc1nc[nH]c1CN(CCCn1ccnc1)Cc1ccccc1Cl [CBK282473]	103%
CN1C(=O)C(CC(=O)NCCCc2ccc(F)cc2)c2ccccc21 (stereo not shown) [CBK282474]	106%
Cn1nc(C2CC2)cc1C(=O)NCCCN1CCCc2ccccc21 [CBK282476]	90.7%
Cc1nc2ccc(C(=O)NCCn3ccnc3C)cc2s1 [CBK282477]	88.1%
Cc1ccc(C2(CN3CCN(Cc4cnn(C)c4)CC3)CC2)cc1 [CBK282480]	96.3%
